According to PMC7947296, “p-Terphenyls From Aspergillus sp. GZWMJZ-055: Identification, Derivation, Antioxidant and α-Glycosidase Inhibitory Activities” (Frontiers in Microbiology, 2021):
“And” between values parts separate entries of the source, which are not always exact repeats. Equal entries are not always repeated.

What was measured:
[1] = DPPH radical-scavenging assay; conditions: DPPH 0.15 mM in MeOH, 30-min incubation in the dark at rt, absorbance 517 nm
Protocol: The anti-oxidative activity of compounds was also evaluated by 2,2-diphenyl-1-picrylhydrazyl (DPPH) radical-scavenging assay ([Wang et al., 2007]). The experiment was divided into the following five groups, blank (methanol, MeOH), sample (mix compound and DPPH solution), background (pure compound solution), negative (pure DPPH solution), and positive [mix vitamin C (VC) and DPPH solution] controls. DPPH (0.15 mM), compounds (1–100 μM), and VC (1–100 μM) that was regarded as a compound sample in the following procedures all were dissolved in MeOH. Each 160 μL of MeOH was placed in negative control and blank groups, while each 160 μL of testing compounds or VC was placed in sample and background groups. Then, MeOH (each 40 μL) was, respectively, added to blank and background groups, while 40 μL of DPPH was, respectively, added to negative, positive, and sample controls. After 30-min incubation in the dark at rt, the decrease in DPPH radical concentration was monitored by measuring the absorbance at λ 517 nm with a microplate reader (Multiskan Spectrum, Thermo Scientific Varioskan LUX). The DPPH radical-scavenging rate was calculated as:
Scavenging rate (%)=[(Anegative-Ablank)-(Asample-Abackground)]/(Anegative-Ablank)×100%.

[2] = Oxygen radical absorbance capacity (ORAC) assay; conditions: trolox equivalents; tested at 6.25 μM (compounds 4–7), 12.5 μM (1–3, 8–16), 25.0 μM (17–25); PBS pH 7.4, 37°C
Protocol: The anti-oxidative activity of compounds was evaluated by ORAC assay ([Huang et al., 2002]) that was carried out mainly by using 2,2′-azobis(2-amidinopropane) dihydrochloride (AAPH, 153.0 μM), fluorescein (FL, 81.6 nM), testing compounds, and trolox as a positive control, all of which were dissolved in phosphate buffer solution (PBS, 75 mM, pH 7.4). The concentrations were 6.25 μM for compounds 4–7 and trolox, 12.5 μM for compounds 1–3, 8–16 and trolox, and 25.0 μM for compounds 17–25 and trolox, respectively (Supplementary Figure 36). In short, each 25 μL of testing compounds, blank (PBS), negative (PBS) and trolox, and 150 μL of FL were added in each well and incubated at 37°C for 10 min. Each 25 μL of AAPH was then added to the testing compounds, blank and trolox groups, and 25 μL of PBS was added to the negative group. Fluorescence intensity of each well was measured one time every 1 min for 90 cycles using a Fluoroskan Ascent FL plate-reader (Thermo Scientific Varioskan LUX) at excitation of λ 485 nm and emission of λ 530 nm. The relative fluorescence intensity f was equaled to the ratio of the absolute fluorescence reading to the initial fluorescence reading, and the net area under curve (AUC) was obtained by subtracting the AUC of the blank from that of the compound. The AUC was calculated as 0.5 + f1 +… fi +… + f89 + 0.5 × f90, in which fi means the ratio of fluorescence reading at time i to the initial fluorescence reading. The final ORAC values were calculated as micromole of trolox equivalents per micromole of the compound (μmole TE/μmole) by using a regression equation between the trolox concentration and the net area under the FL decay curve. That is, the relative ORAC value = (AUCcompound – AUCblank)/(AUCtrolox – AUCblank).

[3] = Cytotoxic effects on caco-2 cells by CTG assay; type: cell-based; conditions: human, 72 h incubation, read-out: inhibitory rate (cytotoxicity to caco-2 cells)
Protocol: The cytotoxic effects on the coca-2 cells were evaluated by the CTG assay ([Elisia and Kitts, 2008]; [Wang et al., 2019]). Briefly, coca-2 cells were seeded in 96-well plates at a density of 2 × 10^3 cells/well and treated with the final concentration of 1.0 μM of the compounds. After 72 h incubation, 100 μL of CTG solution (Promega) was added into each well. The luminescence value was tested by using a microplate reader (BioTek Synergy H1) after staying at rt for 10 min.

[4] = target: α-glucosidase from Saccharomyces cerevisiae (Saccharomyces cerevisiae, UniProt P53341); assay: biochemical;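 note: 15 min preincubation at 37 °C, then 30 min with PNPG substrate at 37 °C, inhibition computed from absorbance versus drug-free blank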
α-glucosidase from Saccharomyces cerevisiae, sequence (P53341 whole entry): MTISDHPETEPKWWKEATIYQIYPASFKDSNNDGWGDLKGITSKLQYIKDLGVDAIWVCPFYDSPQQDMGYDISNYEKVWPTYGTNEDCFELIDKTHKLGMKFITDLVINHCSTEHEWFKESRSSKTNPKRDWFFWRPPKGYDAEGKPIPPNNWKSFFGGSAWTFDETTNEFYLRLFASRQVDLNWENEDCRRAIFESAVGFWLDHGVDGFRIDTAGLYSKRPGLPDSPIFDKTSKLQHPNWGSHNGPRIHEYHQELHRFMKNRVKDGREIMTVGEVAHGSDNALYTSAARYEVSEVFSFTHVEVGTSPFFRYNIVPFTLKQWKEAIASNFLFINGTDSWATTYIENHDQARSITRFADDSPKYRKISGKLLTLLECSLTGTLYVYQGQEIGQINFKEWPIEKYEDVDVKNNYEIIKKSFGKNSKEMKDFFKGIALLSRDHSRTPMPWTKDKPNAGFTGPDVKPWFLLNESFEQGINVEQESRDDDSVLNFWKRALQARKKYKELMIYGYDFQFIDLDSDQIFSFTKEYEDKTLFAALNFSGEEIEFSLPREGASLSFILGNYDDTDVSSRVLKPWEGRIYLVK
Protocol: After incubation for 15 min at 37°C, 20 μL of PNPG solution was added to each well of testing groups and further incubated at 37°C for 30 min. Finally, 80 μL of Na2CO3 solution was added to each well to stop the reaction and the absorbance was measured by a microplate reader (Multiskan Spectrum, Thermo Scientific Varioskan LUX) at λ 405 nm.

SMILES | IC50 [1] | ORAC (μMole TE/μMole) [2] | inhibition at 72 h, 1 µM [3] | IC50 [4]
O=C1C=C(c2ccc(O)cc2)C(=O)C(O)=C1c1ccc(O)cc1 [Compound 20] | 5.9 ± 0.08 µM | 6.1 μMole TE/μMole and 6.1 ± 0.2 μMole TE/μMole | 0.4% | 8.9 ± 0.4 µM
COc1cc(-c2ccccc2)c(OC)c(O)c1-c1ccc(O)c(CC=C(C)C)c1 [Compound 11, 4″-deoxyprenylterphenyllin] | 1.6 ± 0.01 µM | 1.2 ± 0.5 μMole TE/μMole | – | 34.4 ± 1.1 µM
COc1cc(-c2ccc(O)cc2)c(OC)c(O)c1-c1ccccc1 [Compound 2, 4-deoxyterphenyllin] | > 100 µM | 1.2 ± 0.09 μMole TE/μMole | – | 239 ± 5.9 µM
COc1cc(-c2c(OC)cc(-c3ccc(O)cc3)c(OC)c2O)ccc1OCC=C(C)C [Compound 13, 3-methoxyterprenin] | > 100 µM | 0.4 ± 0.07 μMole TE/μMole | – | 152 ± 9.6 µM
COc1cc(-c2ccc(O)cc2)c(OC)c(O)c1-c1ccc(O)c(O)c1 [Compound 6, 3-hydroxyterphyllin] | 1.4 ± 0.01 µM | 5.7 μMole TE/μMole and 5.7 ± 0.3 μMole TE/μMole | 0.2% | 10.9 ± 1.3 µM
COc1cc(-c2ccc(OC(C)=O)cc2)c(OC)c(OC(C)=O)c1-c1ccc(OC(C)=O)cc1 [Compound 23] | > 100 µM | 0.1 ± 0.01 μMole TE/μMole | – | > 500 µM
O=C1C=C(c2ccc(O)c(O)c2)C(=O)C(O)=C1c1ccc(O)c(O)c1 [Compound 22] | 1.7 ± 0.02 µM | 2.8 ± 0.3 μMole TE/μMole | – | 10.1 ± 0.1 µM
COc1cc(-c2ccc(O)c(O)c2)c(OC)c(O)c1-c1ccc(O)c(O)c1 [Compound 7, 3,3″-dihydroxyterphyllin] | 1.1 ± 0.03 µM | 4.5 μMole TE/μMole and 4.5 ± 0.4 μMole TE/μMole | 0.5% | 18.3 ± 0.9 µM
COc1cc(-c2ccccc2)c(OC)c(O)c1-c1ccc(O)c(O)c1 [Compound 9, 4″-deoxy-3-hydroxyterphenyllin] | 1.9 ± 0.04 µM | 0.5 ± 0.06 μMole TE/μMole | – | 464 ± 23.6 µM
COc1cc(-c2ccc(OC(C)=O)cc2)c(OC)c(OC(C)=O)c1-c1ccc(OC(C)=O)c(OC(C)=O)c1 [Compound 24] | 37.8 ± 0.1 µM | 0.8 ± 0.07 μMole TE/μMole | – | > 500 µM
COc1cc(-c2c(OC)cc(-c3ccccc3)c(OC)c2O)ccc1OCC=C(C)C [Compound 1, 3-O-methyl-4″-deoxyterprenin] | > 100 µM | 1.0 ± 0.04 μMole TE/μMole | – | > 500 µM
COc1cc(-c2ccc(O)cc2)c(OC)c(OC)c1-c1ccc(O)cc1 [Compound 10, 3′-O-methylterphenyllin] | > 100 µM | 0.5 ± 0.03 μMole TE/μMole | – | > 500 µM
COc1cc(-c2ccc(O)cc2)c(OC)c(O)c1-c1ccc(O)cc1 [Compound 5, terphenyllin] | 10.9 ± 0.3 µM | 6.0 μMole TE/μMole and 6.0 ± 0.09 μMole TE/μMole | 0.4% | 2.8 ± 0.2 µM
COc1c(-c2ccc(O)cc2)cc(OC)c2c1oc1cc(O)c(O)cc12 [Compound 15, candidusin A] | 3.6 ± 0.06 µM | 2.1 ± 0.06 μMole TE/μMole | 20.5% | 13.1 ± 0.2 µM
COc1c(-c2ccc(O)c(O)c2)cc(OC)c2c1oc1cc(O)c(O)cc12 [Compound 16, candidusin B] | 3.2 ± 0.1 µM | 2.0 ± 0.06 μMole TE/μMole | 2.7% | 7.9 ± 0.3 µM
Oc1ccc(-c2cc(O)c(-c3ccc(O)c(O)c3)c(O)c2O)cc1 [Compound 18] | 3.7 ± 0.07 µM | 3.7 ± 0.1 μMole TE/μMole | – | 25 ± 0.8 µM
COc1cc(-c2ccc(OC(C)=O)c(OC(C)=O)c2)c(OC)c(OC(C)=O)c1-c1ccc(OC(C)=O)c(OC(C)=O)c1 [Compound 25] | 11 ± 0.1 µM | 1.7 ± 0.07 μMole TE/μMole | – | > 500 µM
COc1cc(-c2ccccc2)c(OC)c(OC)c1-c1ccc(O)cc1 [Compound 3, 4″-deoxy-2′-methoxyterphenyllin] | > 100 µM | 2.1 ± 0.5 μMole TE/μMole | – | > 500 µM
COc1c(-c2ccccc2)cc(OC)c2c1oc1cc(O)c(O)cc12 [Compound 14, 4″-deoxycandidusin A] | 4 ± 0.2 µM | 0.4 ± 0.06 μMole TE/μMole | – | 128 ± 2.3 µM
Oc1ccc(-c2cc(O)c(-c3ccc(O)c(O)c3)c(O)c2O)cc1O [Compound 19] | 1.8 ± 0.04 µM | 2.6 ± 0.1 μMole TE/μMole | – | 19.4 ± 0.1 µM
COc1cc(-c2ccc(O)c(CC=C(C)C)c2)c(OC)c(O)c1-c1ccc(O)c(O)c1 [Compound 12, prenylterphenyllin A] | 1.6 ± 0.02 µM | 1.4 ± 0.01 μMole TE/μMole | – | 64.4 ± 1.2 µM
Oc1ccc(-c2cc(O)c(-c3ccc(O)cc3)c(O)c2O)cc1 [Compound 17] | 5.3 ± 0.06 µM | 4.8 μMole TE/μMole and 4.8 ± 0.3 μMole TE/μMole | – | 25.1 ± 0.7 µM
COc1cc(-c2ccccc2)c(OC)c(O)c1-c1ccc(O)cc1 [Compound 8, 4″-deoxyterphenyllin] | 57.8 ± 0.8 µM | 0.5 ± 0.01 μMole TE/μMole | – | 130 ± 3.5 µM
O=C1C=C(c2ccc(O)cc2)C(=O)C(O)=C1c1ccc(O)c(O)c1 [Compound 21] | 1.6 ± 0.04 µM | 3.9 ± 0.1 μMole TE/μMole | 1.2% | 4 ± 0.08 µM
O=C1O[C@H]([C@@H](O)CO)C(O)=C1O [VC, vitamin C, reference compound] | 2.8 ± 0.03 µM | – | – | –
COc1cc(-c2ccc(O)cc2)c(O)c(O)c1-c1ccc(O)cc1 [Compound 4, 5′-methoxy-[1,1′:4′,1″-terphenyl]-2′,3′,4,4″-tetraol] | 1.7 ± 0.02 µM | 6.8 μMole TE/μMole and 6.8 ± 0.05 μMole TE/μMole | – | 5.9 ± 0.6 µM
